Experimental data taken from ChEMBL document CHEMBL1153476, “Novel mannosyl derivatives of peptidoglycan monomer: Synthesis and biological evaluation of immunomodulatory properties” (2009).

System: Mus musculus
Test: Immunostimulatory activity against ovalbumin-stimulated immune response in mouse serum assessed as ratio of IgG1 to IgG2a at 200 ug, sc measured after 7 days by ELISA
Format: functional

`CC(=O)N[C@@H]1[C@@H](O[C@H](C)C(=O)N[C@@H](C)C(=O)N[C@H](CCC(=O)N[C@H](CCC[C@H](N)C(N)=O)C(=O)N[C@H](C)C(=O)N[C@H](C)C(=O)O)C(N)=O)[C@H](O[C@@H]2O[C@H](CO)[C@@H](O)[C@H](O)[C@H]2NC(C)=O)[C@@H](CO)O[C@H]1O` showed a Ratio of 2.6.
